Key:
[1] = system: HFD-fed rats injected with streptozotocin (STZ) to induce type 2 diabetes (T2DM); experiment: Study 3 (BVISIV Study): HFD plus STZ type 2 diabetes rats, 200 mg/kg/day; type: in vivo
[2] = has been reported; model of accelerated aging; cited from earlier work

Structure (SMILES): O=C[C@H](O)[C@@H](O)[C@@H](O)[C@H](O)C(=O)O [BVISIV 4, Galacturonic Acid]
- lowering of glucose serum levels vs Group 2 ([1]; end of 6 weeks): most effective

Structure (SMILES): O=C[C@H](O)[C@@H](O)[C@@H](O)[C@H](O)CO [BVISIV 5, Galactose]
- reduction of serum ALT levels ([1]; HFD/T2DM rats): effective
- reduction of serum LDL cholesterol levels ([1]; HFD/T2DM rats): effective
- reduction of serum triglyceride levels ([1]; HFD/T2DM rats): effective
- aging effect (cognitive and motor skills) [2]: deterioration of cognitive and motor skills

Structure (SMILES): O=C[C@@H](O)[C@H](O)[C@H](O)CO [BVISIV 6, Arabinose]
- comparative performance among formulations (triglycerides, LDL cholesterol, ALT) ([1]; HFD/T2DM rats): did not perform as well as the other formulations

From patent US20180256616A1, “Compounds, Compositions and Methods for Prevention or Treatment of Liver and Lipid-Related Conditions” (Sivanaray, Inc., priority 2015, published 2018)
